For data set [1], the system named is CT26 cells. The data set can be described thus: Immunogenic cell death: extracellular ATP release. It counts as cell-based. To be noted: CT26, 5 μM, 24 h, +L/−L. How it is done: (§1) First, CT26 cells were plated in 35 mm cell culture dishes at a density of 1×10^5 cells/dish and doxorubicin (DOX) (5 μM), verteporfin (VPF) (5 μM) or the self-assembled nanoparticles (LT-NPs) (5 μM) were added to each dish. After 24-h culture, one half was exposed by irradiation with visible light using a 671 nm laser at 40 mW for 250 sec (+L) and the other half was not irradiated with visible light for comparison (−L). The immunogenic cell death of the self-assembled nanoparticles (LT-NPs) was evaluated using the cells and the cell culture media.
ATP was analyzed using a commercially available ATP assay kit (Beyotime Biotechnology) according to the manufacturer's protocol.

Data set [2] is described as follows: Morphological analysis by transmission electron microscopy in saline. It counts as physicochemical. Conditions: 1 mg in 1 mL physiological saline. The protocol:
The self-assembled nanoparticles (LT-NPs) prepared in Example 1, doxorubicin (DOX), and verteporfin (VPF) were used as samples. 1 mg of each sample was mixed with physiological saline (1 mL). […] The self-assembled nanoparticles (LT-NPs) were mixed with cathepsin B (Cat-B) protease (50 μg/mL). The mixture was allowed to react for 24 h.

For data set [3], the system named is CT26 cells. The data set can be described thus: Immunogenic cell death: calreticulin expression. It counts as cell-based. Conditions: CT26, 5 μM, 24 h, +L/−L. The protocol:
as §1
Cells were stained with APC-conjugated CRT antibody for 12 h and observed with a confocal fluorescence microscope.

Data set [4] deals with CT26 cells. In words: Immunogenic cell death: extracellular HSP70 and HMGB1 (Western blotting). It counts as cell-based. Conditions: CT26, 5 μM, 24 h, +L/−L. How it is done: as §1
Before staining the cells with APC-conjugated CRT antibody, culture media were separated from the cells and the extracellular expression levels of HMGB1 and HSP70 were analyzed by Western blotting.
Each cell culture medium was treated with RIPA buffer (Cell Signaling Technology) at 4° C. for 30 min and the protein amount of the lysate was analyzed using a Pierce BCA protein assay kit (Thermo Fisher Scientific) according to the manufacturer's protocol. After SDS-PAGE, proteins were transferred to a PVDF membrane (Bio-Rad), which was then treated with Tris-buffered saline (TBS-T) containing 5% skim milk and 0.1% Tween-20. The membrane was incubated with primary antibodies at 4° C. overnight. HSP70 and HMGB1 antibodies were used as the primary antibodies. The membrane was washed with TBS-T and incubated with a secondary antibody at room temperature for 1 h. The membrane was washed with TBS-T, treated with EZ-Western Lumi Pico or Femto reagent (DoGen), and analyzed using Fusion-Solo software (Vilber) according to the manufacturer's protocol to determine band intensities.

The test system of data set [5] is CT26 cells. In words: Apoptosis and necrosis of CT26 cells (Annexin V/PI flow cytometry). Conditions: CT26, visible light. Type of data set: cell-based. The protocol:
The degrees of apoptosis and necrosis of cancer cells were quantitatively analyzed to accurately evaluate the anticancer effect of the self-assembled nanoparticles (LT-NPs). First, CT26 cells treated with doxorubicin (DOX), verteporfin (VPF), a mixture of doxorubicin and verteporfin (VPF+DOX) or the self-assembled nanoparticles (LT-NPs) and a laser were prepared as above and treated with 5 μg of Annexin V-FITC and 10 μg of PI solution for 10 min. Then, cells were cultured with a cell fixative for 10 min and further cultured with DAPI for 20 min. The degrees of apoptosis and necrosis were quantitatively analyzed using a flow cytometer (BD FACSVerse, BD bioscience, USA).

The source of these data is patent US11833204B2, “Visible light-activatable nanoparticles for cancer immunotherapy and use thereof” (KOREA INSTITUTE OF SCIENCE AND TECHNOLOGY, priority 2021, dated 2023).

For verteporfin, in data set [1], the ATP release entry is reported as “relatively increased”. The “morphology in physiological saline (TEM)” value in data set [2] is reported as “aggregated”. The calreticulin expression result in data set [3] is given as “relatively increased”. Also, in data set [4], the HMGB-1 release result was “relatively increased” and the HSP70 release result was “relatively increased”. In data set [5], the “degree of apoptosis (and necrosis)” value is “considerable apoptosis and necrosis”; the “proportions of early apoptosis, late apoptosis and necrosis” value is on record as “increase the proportion of late apoptosis”.

Consider `COc1cccc2c1C(=O)c1c(O)c3c(c(O)c1C2=O)C[C@@](O)(C(=O)CO)C[C@@H]3O[C@H]1C[C@H](N)[C@H](O)[C@H](C)O1` [doxorubicin], for which, in data set [1], the ATP release result is listed as “lowest”. Moreover, the “morphology in physiological saline (TEM)” value in data set [2] was “aggregated”. Besides, the calreticulin expression result in data set [3] is listed as “lowest”. Also, in data set [4], the HMGB-1 release result is listed as “lowest” and the HSP70 release result is “lowest”. In addition, the “degree of apoptosis (and necrosis)” value in data set [5] was “very little apoptosis”.
